The results in this text go back to patent US7718614B2 (Kurume University, priority 2003, dated 2010).

“And” between values parts separate entries of the source, which are not always exact repeats. Identical values can stand only once. “Also recorded” adds a separate entry of the source.

The test system of assay [1] is peptide-specific IgG. The assay is described as follows: ELISA of serum IgG specific for the administered peptides, Example 1. More on the design: key: −: absent; +: present, low titer; ++: present, high titer. Conditions: serum of the individual case; for Anti-peptide IgG during the combination therapy, 6th: after 6th vaccination; for Anti-peptide IgG during the combination therapy, 12th: after 12th vaccination; for Anti-peptide IgG during the combination therapy, 18th: after 18th vaccination; for Anti-peptide IgG during the combination therapy, Pre: before combination therapy. Type of assay: in vivo, human. A general note: In an ELISA, binding on a coated surface is turned into a signal by an enzyme label.

Assay [2] concerns peptide-specific CTL precursors in PBMCs. The assay is described as follows: Peptide-specific CTL precursor assay (IFN-γ production), Example 2. It counts as cell-based, human. Conditions: for Cellular response to peptide, 6th (mean specific IFN-γ production): post(6th)-vaccination PBMCs of the individual patient, * p ≦ 0.05, ** p ≦ 0.10 increased versus pre; for Cellular response to peptide, Pre (mean specific IFN-γ production): pre-vaccination PBMCs of the individual patient, response to HIV peptide subtracted.
Method: Before the first vaccination and 7 days after every 6th vaccination, 30 ml of peripheral blood was obtained, and PBMCs were isolated by means of Ficoll-Conray density gradient centrifugation. Peptide-specific CTL precursors in PBMCs were detected using a previously reported culture method [24]. Briefly, PBMCs (1×10^5 cells/well) were incubated with 10 μM of each peptide in U-bottom-type 96-well microculture plates (Nunc, Roskilde, Denmark) in 200 μl of culture medium. The culture medium contained 45% RPMI-1640 medium, 45% AIM-V™ medium (Invitrogen Corp., Carlsbad, Calif.), 10% FCS, 100 U/ml of interleukin-2 (IL-2) and 0.1 mM MEM nonessential amino acid solution (Invitrogen Corp.). Half of the medium was removed and replaced with the new medium containing a corresponding peptide (20 μM) every 3 days for up to 12 days. […] The target cells (C1R-A2402 or T2, 1×10^4/well) were pulsed with each peptide (10 μM) for 2 hr, and then effector cells (1×10^5/well) were added to each well with the final volume of 200 μl. After incubation for 18 hr, the supernatants (100 μl) were collected, and the amounts of IFN-γ were measured using an enzyme-linked immuno-sorbent assay (ELISA) (limit of sensitivity: 10 pg/ml). All experiments were performed in the four different wells with duplicate assays.
All patients were vaccinated with up to 4 peptides selected from the 16 candidates by pre-vaccination measurements.

The test system is the same in assay [3]. The assay is described as follows: Peptide-specific CTL precursor assay (IFN-γ production of peptide-stimulated PBMCs), Example 1.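 On all read-outs here: PBMCs cultured with each peptide at 10 µM, restimulated at 20 µM every 3 days up to 12 days, then 18 hr with peptide-pulsed target cells, IFN-γ by ELISA.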 Conditions: PBMCs of the individual case; for Cellular response to peptide during the combination therapy, 6th: after 6th vaccination; for Cellular response to peptide during the combination therapy, Pre: before combination therapy, grade of each positive well of quadruplicate IFN-γ assay; for Cellular response to peptide during the combination therapy, 18th: after 18th vaccination; for Cellular response to peptide during the combination therapy, 12th: after 12th vaccination. It counts as cell-based, human. Also noted: key to Cellular response to peptide during the combination therapy, 12th / Cellular response to peptide during the combination therapy, 6th / Cellular response to peptide during the combination therapy, Pre: Ar: p* ≦ 0.1 and 500 ≦ net**; A: p ≦ 0.05 and 50 ≦ net; B: p ≦ 0.05 and 25 ≦ net < 50; C: 0.05 < p < 0.1 and 50 ≦ net; AAAA: all four wells of quadruplicate assay were positive; AAA: three wells of quadruplicate assay were positive; AA: two wells of quadruplicate assay were positive.
Method: Before the first vaccination and 7 days after every 6th vaccination, 30 ml of peripheral blood was obtained, and PBMCs were isolated by means of Ficoll-Conray density gradient centrifugation. Peptide-specific CTL precursors in PBMCs were detected using a previously reported culture method [24]. Briefly, PBMCs (1×10^5 cells/well) were incubated with 10 μM of each peptide in U-bottom-type 96-well microculture plates (Nunc, Roskilde, Denmark) in 200 μl of culture medium. The culture medium contained 45% RPMI-1640 medium, 45% AIM-V™ medium (Invitrogen Corp., Carlsbad, Calif.), 10% FCS, 100 U/ml of interleukin-2 (IL-2) and 0.1 mM MEM nonessential amino acid solution (Invitrogen Corp.). Half of the medium was removed and replaced with the new medium containing a corresponding peptide (20 μM) every 3 days for up to 12 days. […] The target cells (C1R-A2402 or T2, 1×10^4/well) were pulsed with each peptide (10 μM) for 2 hr, and then effector cells (1×10^5/well) were added to each well with the final volume of 200 μl. After incubation for 18 hr, the supernatants (100 μl) were collected, and the amounts of IFN-γ were measured using an enzyme-linked immuno-sorbent assay (ELISA) (limit of sensitivity: 10 pg/ml). All experiments were performed in the four different wells with duplicate assays. […] Peptides were chosen based upon evaluation of all 4 wells by the order shown above.
Peptide-specific CTL precursors in PBMCs were detected using a previously reported culture method [24], while an ELISA was used to detect the serum IgG levels specific for the peptides administrated, as reported previously [13-15]. […] Namely, PBMCs were harvested every 2 weeks and were cultured (10^4 cells/well) for 2 days in triplicate assays with 10 μl M of phytohemagglutinin (PHA), 10 ng/ml of Epstein-Bar virus (EBV)-derived peptide with HLA-A24 or -A2 binding motif, and 10 ng/ml of two different peptides under vaccination. After 2 days in culture, the amounts of IFN-γ in cell free supernatants were measured in triplicate assays, and viable cell numbers were also counted. To avoid biases in each assay, all the PBMCs were once cryopreserved and the four different PBMCs (two from healthy donors, one from patients PBMCs harvested 2 weeks before the latest vaccination, and one from the latest vaccination) were thawed at the same time in the morning of the experiment. The PBMCs from healthy donors were from the same donors throughout the series of immunological monitoring. Responses (IFN-γ production) to PHA, EBV-peptide, and the vaccinated peptides were considered to be mediated by resting T cells, memory T cells, and activated T cells, respectively.

Assay [4] concerns peptide-specific IgG. The assay is described as follows: ELISA of serum anti-peptide IgG, Example 2. Type of assay: in vivo, human. Also noted: key: −: absent; +: present, low titer; ++: present, high titer. Conditions: serum of the individual patient; for Anti-peptide IgG, 6th: after 6th vaccination; for Anti-peptide IgG, Pre: pre-vaccination. The protocol: Peptide-specific CTL precursors in PBMCs were detected using a previously reported culture method, while an ELISA was used to detect the serum IgG levels specific for the peptides administrated, as reported previously. In addition, a new monitoring method was conducted to carefully measure the estramustine-induced immunosuppression. Namely, PBMCs were harvested every 2 weeks and were cultured (10^4 cells/well) for 2 days in triplicate assays with […] of phytohemagglutinin (PHA), 10 ng/ml of Epstein-Bar virus (EBV)-derived peptide with HLA-A24 or -A2 binding motif, and 10 ng/ml of two different peptides under vaccination. After 2 days in culture, the amounts of IFN-γ in cell free supernatants were measured in triplicate assays, and viable cell numbers were also counted. To avoid biases in each assay, all the PBMCs were once cryopreserved and the four different PBMCs (two from healthy donors, one from patients PBMCs harvested 2 weeks before the latest vaccination, and one from the latest vaccination) were thawed at the same time in the morning of the experiment. The PBMCs from healthy donors were from the same donors throughout the series of immunological monitoring. Responses (IFN-γ production) to PHA, EBV-peptide, and the vaccinated peptides were considered to be mediated by resting T cells, memory T cells, and activated T cells, respectively.
Except for the following points, substantially the same approach was employed as Example 1.

Turning to HYTNASDGL [lck208-216], in the assay on peptide-specific IgG [1], the “Anti-peptide IgG during the combination therapy, 6th” value is “−”; the “Anti-peptide IgG during the combination therapy, 12th” value is on record as “−”; the “Anti-peptide IgG during the combination therapy, 18th” value was “− and +”; the “Anti-peptide IgG during the combination therapy, Pre” value is given as “−”. Besides, in assay [2], the “Cellular response to peptide, 6th (mean specific IFN-γ production)” value (shortened to “Cellular response to peptide, 6th”) is 0 pg/mL and 676 pg/mL and 58.8 pg/mL; the “Cellular response to peptide, Pre (mean specific IFN-γ production)” value (“Cellular response to peptide, Pre” for short) was 34.8 pg/mL and 5.8 pg/mL and 26.3 pg/mL. In addition, in assay [3], the “Cellular response to peptide during the combination therapy, 6th” value was “AA”; the “Cellular response to peptide during the combination therapy, Pre” value was “A (p ≦ 0.05 and 50 ≦ net)”. Moreover, in the assay on peptide-specific IgG [4], the “Anti-peptide IgG, 6th” value is “−”; the “Anti-peptide IgG, Pre” value is “− (2×) and +”.

LYCESVHNF [PAP213]: in assay [2], the “Cellular response to peptide, 6th” value was 46.8 pg/ml and 850* pg/ml and 0 pg/ml and 186.8** pg/ml and 36.5 pg/ml and 153.5 pg/ml and 622.3* pg/ml and 9.5 pg/ml and 324.3** pg/ml and 32 pg/ml and 392.3* pg/ml; the “Cellular response to peptide, Pre” value is 0 pg/ml (3×) and 30.8 pg/ml and 5.8 pg/ml and 375 pg/ml and 250 pg/ml and 28.8 pg/ml and 80 pg/ml and 14.3 pg/ml and 33.8 pg/ml. In the assay with peptide-specific IgG [4], the “Anti-peptide IgG, 6th” value is “++ and + (5×) and − (4×)”; the “Anti-peptide IgG, Pre” value was “+ (6×) and − (5×)”.

Consider SYTRLFLIL [SART 2899-907], for which, in the assay with peptide-specific IgG [1], the “Anti-peptide IgG during the combination therapy, 6th” value is “−”; the “Anti-peptide IgG during the combination therapy, 12th” value is on record as “−”; the “Anti-peptide IgG during the combination therapy, 18th” value is recorded as “−”; the “Anti-peptide IgG during the combination therapy, Pre” value is recorded as “−”. For the same sequence, in assay [3], the “Cellular response to peptide during the combination therapy, 18th” value (“Cellular response … 18th” below) is “A (p ≦ 0.05 and 50 ≦ net)”; the “Cellular response to peptide during the combination therapy, Pre” value was “A (p ≦ 0.05 and 50 ≦ net)”.

As to TFDYLRSVL [lck486], in assay [2], the “Cellular response to peptide, 6th” value amounted to 58.5 pg/mL and the “Cellular response to peptide, Pre” value turned out to be 375 pg/mL. In addition, in the assay with peptide-specific IgG [4], the “Anti-peptide IgG, 6th” value is recorded as “+” and the “Anti-peptide IgG, Pre” value is listed as “−”.

On to TYSVSFDSL [PSM624], for which, in assay [2], the “Cellular response to peptide, 6th” value amounted to 167 pg/mL and the “Cellular response to peptide, Pre” value was 100 pg/mL. For the same sequence, in the assay with peptide-specific IgG [4], the “Anti-peptide IgG, 6th” value was “+” and the “Anti-peptide IgG, Pre” value is “+”.

Regarding VLEGMEVV [CypB172-179], in the assay on peptide-specific IgG [1], the “Anti-peptide IgG during the combination therapy, 6th” value is on record as “+”; the “Anti-peptide IgG during the combination therapy, 12th” value is given as “+”; the “Anti-peptide IgG during the combination therapy, 18th” value was “+”; the “Anti-peptide IgG during the combination therapy, Pre” value was “− (2×) and +”. For the same sequence, in assay [3], the “Cellular response to peptide during the combination therapy, 12th” value is “A (p ≦ 0.05 and 50 ≦ net)”; the “Cellular response … 18th” value was “B (p ≦ 0.05 and 25 ≦ net < 50); also recorded: A (p ≦ 0.05 and 50 ≦ net)”; the “Cellular response to peptide during the combination therapy, Pre” value was “A (p ≦ 0.05 and 50 ≦ net)”.

Turning to VYDYNCHVDL [SART 3109-118], in the assay with peptide-specific IgG [1], the “Anti-peptide IgG during the combination therapy, 6th” value was “++ and + and −”; the “Anti-peptide IgG during the combination therapy, 12th” value was “++ and −”; the “Anti-peptide IgG during the combination therapy, 18th” value is “++ and +”; the “Anti-peptide IgG during the combination therapy, Pre” value was “+ and − (2×)”. In addition, in assay [2], the “Cellular response to peptide, 6th” value is 25 pg/ml and 27.3 pg/ml and 534** pg/ml and 170.8 pg/ml and 750** pg/ml and 610.8* pg/ml and 250 pg/ml and 496 pg/ml and 22.3 pg/ml and 0 pg/ml and 681.8 pg/ml; the “Cellular response to peptide, Pre” value was 14.3 pg/ml and 26 pg/ml and 12.3 pg/ml and 5.3 pg/ml and 5.5 pg/ml and 0 pg/ml (2×) and 625 pg/ml and 35.8 pg/ml and 30.3 pg/ml and 25.3 pg/ml and 2.8 pg/ml. Besides, in assay [3], the “Cellular response to peptide during the combination therapy, 6th” value is “ArA and ArArArA”; the “Cellular response to peptide during the combination therapy, 12th” value is “B (p ≦ 0.05 and 25 ≦ net < 50); also recorded: ArArArA”; the “Cellular response … 18th” value was “ArArAA”; the “Cellular response to peptide during the combination therapy, Pre” value was “ArAA and ArArArA”. Besides, in the assay with peptide-specific IgG [4], the “Anti-peptide IgG, 6th” value was “+ (8×) and ++ and −”; the “Anti-peptide IgG, Pre” value was “+ (11×) and −”.
